{
  "source": "patent US8673949B2",
  "about": "(Bristol-Myers Squibb Company, priority 2008, dated 2014)",
  "key": {"phosphorylated Tau (AT8)": {"tested_on": "phosphorylated Tau (AT8)", "assay": "AT8 phosphoTau immunohistochemistry in Tg4510 mice", "assay_type": "in vivo, mouse", "procedure": "Mice were euthanized by cervical dislocation at 5. 5 months followed by decapitation. Brains were immediately removed and divided down the midline into two hemispheres. The right hemisphere was placed into 20 mL of 4% paraformaldehyde (prepared fresh on the day of sacrifice) and stored overnight at 4° C. The following day, the brains were transferred to a tube containing 20 mL TBS (pH 7.4, 20 mM TRIS, 100 mM NaCl) and then stored at 4° C. until processing. Right hemispheres were embedded in paraffin, sectioned at 5 microns, and mounted on positively charged glass slides. The slides were dried overnight in a 60° C. oven and stored at room temperature until stained. The left hemispheres were frozen (within 2 minutes) on dry ice.\nParaffin-embedded thin sections (5 microns) were deparaffinized and rehydrated to water in 3 changes of xylene, two changes of 100% ethanol, and 1 change of 95% ethanol, followed by rinsing in water. Antigen retrieval was performed by steaming the slides in 10 mM sodium citrate buffer, pH 6.0 for 30 minutes in a Black and Decker Steamer (Model # HS900) and then cooled for 30 minutes. […] After washing in TBS, the signal is detected using a Vectastain ABC Elite Kit (Vector Labs Burlingame, Calif.) for 1 hour followed by detection using the diaminobenzadine reagent from Vector labs. […]"}, "[1]": {"assay": "Brain half-life of epothilone D in rats", "assay_type": "in vivo", "conditions": "1 mg/kg, Rat, IV, 1 mpk", "excerpt": "To calculate an accurate brain half-life for a long half-life compound, measurements need to be taken for several half lives after a single dose."}},
  "data": [
    {"smiles": "C/C1=C/C[C@@H](/C(C)=C/c2csc(C)n2)OC(=O)C[C@H](O)C(C)(C)C(=O)[C@H](C)[C@@H](O)[C@@H](C)CCC1", "note": "[Epothilone D, epothilone D]", "values": [
      {"measurement": "AT8 phosphoTau staining, hippocampus CA1", "setting": "phosphorylated Tau (AT8); 1 mpk IP weekly, vs vehicle", "value": "much less phosphoTau staining"},
      {"measurement": "AT8 phosphoTau staining, hippocampus CA1", "setting": "phosphorylated Tau (AT8); 10 mpk IP weekly", "value": "intermediate levels of phosphoTau staining"},
      {"measurement": "half-life", "setting": "[1]", "value": 31, "unit": "h"}
    ]}
  ]
}
